From publication PMC10610494, “Anticancer Peptides Derived from Aldolase A and Induced Tumor-Suppressing Cells Inhibit Pancreatic Ductal Adenocarcinoma Cells” (Pharmaceutics, 2023)

Columns and labels:
[1] = tested on: PANC1 cells; assay: MTT-based viability assay; format: cell-based, human; conditions: for IC50: Homo sapiens
Protocol: (§1) MTT-based assessment of metabolic activity involved seeding approximately 2000 cells into 96-well plates. These cells were subsequently incubated with treatment agents for two days. On day 4, the cells were subjected to staining with 0.5 mg/mL thiazolyl blue tetrazolium bromide (M5655, Sigma). The determination of metabolic activity was based on the measurement of optical density at 562 nm. For the evaluation of proliferation activity using the EdU assay, around 1000 cells were seeded into 96-well plates. A fluorescence-based cell proliferation kit (Click-iT™ EdU Alexa Fluor™ 488 Imaging Kit; Thermo Fisher, Waltham, MA, USA) was employed, following the manufacturer’s protocol. This kit facilitated the detection of EdU incorporation as an indicator of proliferating cells.

[2] = tested on: human PDAC tissue fragments; assay: Ex vivo PDAC tissue fragment assay; format: cell-based
Description: The utilization of human pancreatic cancer tissue was approved by the Indiana University Institutional Review Board (1911155674), and the tissue samples were sourced from the Indiana University Simon Comprehensive Cancer Center Tissue Procurement Core. A freshly procured pancreatic cancer tissue, weighing approximately 1 g, was manually sectioned into small fragments (ranging from 0.5 to 0.8 mm in length) using a scalpel. These fragments were subsequently cultured in DMEM supplemented with 10% FBS and antibiotics for one day. Following this initial incubation, the described conditioned medium (CM) was introduced and maintained for an additional four days, during which any alterations in fragment size were assessed.

[3] = tested on: PANC1 cells; assay: Transwell invasion assay; format: cell-based, human; conditions: 25 μg of P04
Protocol: To assess the invasive potential of tumor cells, a 12-well plate and transwell chambers (353,182, Thermo Fisher) featuring 8-µm pore size were employed. The transwell chambers were pre-coated with 300 µL of Matrigel (100 µg/mL), followed by the addition of 500 µL of serum-free medium. Afterward, the chambers were rinsed three times with a serum-free medium. Subsequently, approximately 7 × 10^4 cells in 300 µL of serum-free DMEM were introduced into the upper chamber, while 800 µL of the conditioned medium (CM) was added to the lower chamber. Upon completion of the experiment, cells that had invaded the lower side of the membrane were fixed and stained using methanol and crystal violet. Utilizing an inverted optical microscope (100×), five randomly selected images were captured. From these images, the average count of stained cells, serving as an indicator of the invasion capacity, was determined.

[4] = tested on: MSCs; assay: MTT-based viability of MSCs; format: cell-based, mice; conditions: P04; assay not specified, no data shown
Protocol: Human pancreatic ductal adenocarcinoma (PDAC) cell lines including PANC1 (ATCC, Manassas, VA, USA), PANC198, and Pa03C (sourced from Indiana University Simon Comprehensive Cancer Center, Indianapolis, IN, USA) were cultured in DMEM (10-013-CV, Corning Inc., Corning, NY, USA). The breast cancer cell lines MDA-MB-231 and MDA-MB-436 (ATCC) were grown in RPMI-1640 medium (Gibco, Carlsbad, CA, USA). The culture media for all cell lines were supplemented with 10% fetal bovine serum and antibiotics (100 units/mL penicillin and 100 µg/mL streptomycin; Life Technologies, Grand Island, NY, USA). Jurkat T lymphocytes (ATCC) were cultured in RPMI-1640 medium (10-040-CV, Corning). Murine MSCs derived from the bone marrow of C57BL/6 mice were cultured in DMEM. All cell cultures were maintained at 37 °C with 5% CO2. The overexpression of ALDOA was accomplished by transfecting its plasmids (109,854; Addgene, Cambridge, MA, USA), while blank plasmids (FLAG-HA-pcDNA3.1; Addgene) were employed as controls.
MTT-based assessment of metabolic activity involved seeding approximately 2000 cells into 96-well plates. These cells were subsequently incubated with treatment agents for two days. […] A fluorescence-based cell proliferation kit (Click-iT™ EdU Alexa Fluor™ 488 Imaging Kit; Thermo Fisher, Waltham, MA, USA) was employed, following the manufacturer’s protocol. […]

[5] = tested on: PANC1 cells; assay: EdU proliferation assay; format: cell-based, human; conditions: 25 μg of P04
Protocol: as §1

[6] = tested on: K-Ras; assay: Western blot analysis; format: cell-based, human
Protocol: (§2) Cell lysis was achieved using RIPA lysis buffer (sc-24948, Santa Cruz Biotech, Dallas, TX, USA), supplemented with protease inhibitors (PIA32963, Thermo Fisher), and phosphatase inhibitors (2006643, Calbiochem, Billerica, MA, USA). Subsequently, proteins were separated using 10–15% SDS gels (Bio-Rad Laboratories, Hercules, CA, USA) and then transferred onto polyvinylidene difluoride membranes (IPVH00010, Millipore, Billerica, MA, USA). The membrane was first incubated with primary antibodies, followed by secondary antibodies (7074S/7076S, Cell Signaling, Danvers, MA, USA). Antibodies against ALDOA, Snail, p-Src, Src, cleaved caspase 3, caspase 3 (Cell Signaling), and K-Ras (Santa Cruz Biotech) were employed, with β-actin (Sigma) serving as a control. Protein levels were determined utilizing the Super-Signal West Femto Maximum Sensitivity Substrate (PI34096, Thermo Fisher), and signal intensities were quantified using a luminescent image analyzer (LAS-3000, Fuji Film, Tokyo, Japan).

[7] = tested on: Snail; assay: Western blot analysis; format: cell-based, human; conditions: 25 μg/mL P04
Protocol: as §2

[8] = tested on: ALDOA; assay: Western blot analysis; format: cell-based, human
Protocol: as §2

[9] = tested on: cleaved caspase 3; assay: Western blot analysis; format: cell-based, human; conditions: 25 μg/mL P04
Protocol: as §2

[10] = tested on: p-Src; assay: Western blot analysis; format: cell-based, human; conditions: 25 μg/mL P04
Protocol: as §2

[11] = tested on: PA03C cells; assay: MTT-based viability assay; format: cell-based, human; conditions: 25 μg/mL peptide, incubated two days, vs control
Protocol: as §1

[12] = tested on: PAN198 cells; assay: MTT-based viability assay; format: cell-based, human; conditions: 25 μg/mL peptide, incubated two days, vs control
Protocol: as §1

[13] = tested on: PANC1 cells; assay: Wound-healing scratch assay (motility); format: cell-based, human; conditions: 25 μg/mL peptide, 0 h vs 24 h
Protocol: To analyze the two-dimensional migratory behavior of PANC cells, a wound-healing scratch assay was employed to assess the change in the scratched area. Around 3 × 10^5 cells were seeded into 12-well plates on day 1. On day 2, a scratch was carefully created on the cell layer using the tip of a plastic pipette. The cells were then rinsed with DMEM to eliminate any detached cells. Images of the cell-free areas were captured at both 0 h and 24 h using a light microscope (40× magnification). The sizes of the cell-free zones were subsequently quantified using Image J (v1.5.4f).

[14] = PANC-1, chemotherapeutic agent alone
[15] = PANC-1, chemotherapeutic agent together with 25 μg/mL P04
[16] = following administration of rhALDOA

`O=c1[nH]cc(F)c(=O)[nH]1` [5-Flu, 5-fluorouracil] was tested, and the IC50 [1, 14] was 3.3 µM, the IC50 [1, 15] was 1.6 µM and the PDAC fragment size ([2]; 10 μM 5-Flu alone, 96 h, n = 8) was “reduction”.

With `Nc1ccn([C@@H]2O[C@H](CO)[C@@H](O)C2(F)F)c(=O)n1` [gemcitabine] the IC50 [1, 14] was 1 µM and the IC50 [1, 15] was 0.8 µM.

In the case of “IGEHTPSALAIMENANVLAR [P04, anticancer peptide derived from aldolase A (ALDOA)]”, the “transwell-based invasion of PANC1 cells” value [3] is reported as “discernible decrease”, the “inhibitory effect on mesenchymal stem cells (MSC growth)” value [4] is reported as “no inhibitory effect” and the “EdU-based proliferation of PANC1 cells” value [5] is reported as “discernible decrease”. For the same molecule, the K-Ras level ([6]; PANC1 cells, 25 μg/mL P04) was “discernible reduction”, the Snail level ([7]; PAN198 cells) was “downregulation” and the Snail level ([7]; PANC1 cells) was “downregulation”. For the same molecule, the ALDOA level ([8]; PANC1 cells, 25 μg/mL P04) was “decrease”, the “cleaved caspase 3 level” value ([9]; PAN198 cells) was “increase” and the “cleaved caspase 3 level” value ([9]; PANC1 cells) was “elevation”. For the same molecule, the p-Src level ([10]; PAN198 cells) was “downregulation”, the p-Src level ([10]; PANC1 cells) was “downregulation” and the “MTT-based viability of PANC1 cells” value ([1]; 25 μg/mL peptide, incubated two days, vs control) was “reduction”. For the same molecule, the “MTT-based viability of PA03C cells” value [11] was “reduction”, the “MTT-based viability of PAN198 cells” value [12] was “reduction” and the “scratch-based motility of PANC1 cells” value [13] was “reduction”. For the same molecule, the PDAC fragment size ([2]; 25 μg/mL P04, 96 h, n = 8, patient tissue ex vivo) was “notable reduction”.

B1: rhALDOA: human recombinant ALDOA protein (MBS8248528, MyBioSource) (protein, UniProt P04075 2-364, looked up)
Fructose-bisphosphate …: PYQYPALTPEQKKELSDIAHRIVAPGKGILAADESTGSIAKRLQSIGTENTEENRRFYRQLLLTADDRVNPCIGGVILFHETLYQKADDGRPFPQVIKSKGGVVGIKVDKGVVPLAGTNGETTTQGLDGLSERCAQYKKDGADFAKWRCVLKIGEHTPSALAIMENANVLARYASICQQNGIVPIVEPEILPDGDHDLKRCQYVTEKVLAAVYKALSDHHIYLEGTLLKPNMVTPGHACTQKFSHEEIAMATVTALRRTVPPAVTGITFLSGGQSEEEASINLNAINKCPLLKPWALTFSYGRALQASALKAWGGKKENLKAAQEEYVKRALANSLACQGKYTPSGQAGAAASESLFVSNHAY
B1 was tested, and the K-Ras level [6, 16] was “discernible decreases”, the ALDOA level [8, 16] was “discernible decreases” and the “MTT-based viability of PANC1 cells” value ([1]; 5 μg/mL recombinant ALDOA protein) was “notable reduction”.
